# Patent US8609650B2, “Bridged bicyclic aryl and bridged bicyclic heteroaryl substituted triazoles useful as Axl inhibitors” (Rigel Pharmaceuticals, Inc., priority 2006, dated 2013)
# Molecular target: T1, Axl (Homo sapiens, UniProt P30530)
# T1 construct: endogenous in cells; host or cells: HeLa cells
# T1 sequence (P30530 26-894): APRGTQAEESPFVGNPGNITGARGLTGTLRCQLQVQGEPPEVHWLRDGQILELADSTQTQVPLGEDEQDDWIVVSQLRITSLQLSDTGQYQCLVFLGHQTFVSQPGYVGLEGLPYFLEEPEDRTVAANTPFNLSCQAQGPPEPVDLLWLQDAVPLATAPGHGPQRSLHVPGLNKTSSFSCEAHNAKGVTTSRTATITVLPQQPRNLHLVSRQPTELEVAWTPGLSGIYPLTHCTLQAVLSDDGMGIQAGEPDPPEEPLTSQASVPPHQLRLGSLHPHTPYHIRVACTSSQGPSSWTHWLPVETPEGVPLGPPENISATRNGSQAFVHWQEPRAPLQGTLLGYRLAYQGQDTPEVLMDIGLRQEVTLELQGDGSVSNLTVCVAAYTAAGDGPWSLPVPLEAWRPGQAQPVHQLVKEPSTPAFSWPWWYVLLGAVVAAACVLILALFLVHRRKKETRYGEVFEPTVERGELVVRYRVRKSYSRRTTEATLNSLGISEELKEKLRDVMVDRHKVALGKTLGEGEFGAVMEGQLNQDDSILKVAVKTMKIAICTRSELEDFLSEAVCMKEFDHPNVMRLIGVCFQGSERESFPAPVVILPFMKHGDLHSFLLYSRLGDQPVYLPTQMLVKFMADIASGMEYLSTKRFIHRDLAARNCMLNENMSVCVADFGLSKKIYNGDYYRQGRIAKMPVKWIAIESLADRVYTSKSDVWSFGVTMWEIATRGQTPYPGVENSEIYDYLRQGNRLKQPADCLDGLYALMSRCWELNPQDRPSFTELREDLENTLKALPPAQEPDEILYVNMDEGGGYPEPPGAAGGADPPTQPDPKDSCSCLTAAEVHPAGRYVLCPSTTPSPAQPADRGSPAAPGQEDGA
# Test: Phospho-Akt In-Cell Western Assay (ability to inhibit Axl activity)
# Assay type: cell-based
# Conditions: Hela cells, stimulated by Axl-antibody cross-linking, phospho-Akt chemiluminescence normalized to relative cell number
# Method: The compounds of the invention were tested in the following assay for their ability to inhibit Axl activity.
# Phospho-Akt In-Cell Western Assay
# • Cell culture plate: 96 well assay plate (Corning 3610), white, clear bottom, tissue-culture treated. • Cells: Hela cells. • Starvation medium: For Axl stimulation: 0.5% FCS (fetal calf serum) in DMEM, plus Axl/Fc (extracellular domain of AXL fused to immunoglobulin Fc region) (R&D, 154-AL) 500 ng/mL. • For EGF (epidermal growth factor) stimulation: 0.5% FCS in DMEM (Dulbecco's modified Eagles medium). • Poly-L-Lysine 0.01% solution (the working solution): 10 μg/ml, dilute In PBS (phosphate buffered saline). • Axl antibody cross-linking: • 1st: Mouse anti-Axl (R&D, MAB154). • 2nd: Biotin-SP-conjugated AffiniPure goat anti-mouse IgG (H+L) (Jackson ImmunoResearch #115-065-003). • Fixing buffer: 4% formaldehyde in PBS. • Wash buffer: 0.1% TritonX-100 in PBS. • Quenching buffer: 3% H2O2, 0.1% Azide in wash buffer, Azide and hydrogen peroxide (H2O2) are added fresh. • Blocking buffer: 5% BSA in TBST (tris buffered saline plus 0.1% Tween 20). • Primary antibody: Rabbit anti-human Phospho-Akt antibody (Cell Signaling 9271): 1×250 diluted in blocking buffer. • Secondary antibody: HRP (horse radish peroxidase)-conjugated Goat anti-Rabbit secondary, stock solution: Jackson ImmunoResearch (Goat anti-Rabbit HRP, #111-035-144) 1:1 diluted in glycerol, store at −20° C. The working solution: 1×2000 dilution of stock in blocking buffer. • Chemiluminescent working solution (Pierce, 37030): SuperSignal ELISA (enzyme linked immunosorbant assay) Pico Chemiluminescent substrate. • Crystal Violet solution: Stock: 2.5% Crystal violet in methanol, filtered and kept at ambient temperature. The working solution: dilute the stock 1:20 with PBS immediately before use. • 10% SDS: working solution: 5% SDS (sodium dodecylsulfate), diluted in PBS Methods: Day 1:
# A 96 well TC (tissue culture treated) plate was coated with 10 μg/mL poly-L-Lysine at 37° C. for 30 min, washed twice with PBS, and air-dried for 5 minutes before cells were added. Hela cells were seeded at 10,000 cells/well and the cells were starved in 100 μL starvation medium containing Axl/Fc for 24 hrs.
# The cells were pre-treated with test compounds by adding 100 μL of 2× test compound to the starvation medium on the cells. The cells were incubated at 37° C. for 1 hr before stimulation.
# The cells were stimulated by Axl-antibody cross-linking as follows: A 5×1st/2nd Axl antibody mixture was made (37.5 μg/mL 1st/100 μg/mL 2nd) in starvation medium and nutated at 4° C. with thorough mixing for 1-2 hours for clustering. The resulting mix was warmed to 37° C. 50 μL of 5× Axl 1st/2nd of antibody cluster was added to the cells and the cells were incubated at 37° C. for 5 min.
# After 5 minutes stimulation, the plate was flicked to remove medium and the plate was tapped onto paper towels. Formaldehyde (4.0% in PBS, 100 μL) was added to fix the cells and the cells were incubated at ambient temperature for 20 min without shaking.
# The cells were washed with a plate washer buffer to remove the formaldehyde solution. The plate was flicked to removed excess wash buffer and tapped onto paper towels. Quenching buffer (100 μL) was added to each well and the cells were incubated at ambient temperature for 20 minutes without shaking.
# The cells were washed with a plate washer buffer to remove the quenching buffer. Blocking buffer (100 μL) was added and the cells were incubated at ambient temperature for at least an hour with gentle shaking.
# The cells were washed with a plate washer buffer and diluted primary antibody (50 μL) was added to each well (blocking buffer was added to the negative control wells instead). The plates were incubated overnight at 4° C. with gentle shaking.
# The wash buffer was removed, diluted secondary antibody (100 μL) was added, and the cells were incubated at ambient temperature for 1 hour with gentle shaking. […]
row,Molecule,IC50
1,"Nc1nc(Nc2ccc3c(c2)CCC(NC2CCCC2)CC3)nn1-c1cc(-c2ccccc2)c2c(n1)C1CCN2CC1 (stereo not shown) [Compound 70, 1-(1,4-ethano-8-phenyl-1,2,3,4-tetrahydro-1,5-naphthyridin-6-yl)-N^3-(7-cyclopentylamino-6,7,8,9-tetrahydro-5H-benzo[7]annulene-3-yl)-1H-1,2,4-triazole-3,5-diamine]",< 1000 nM
2,"Nc1nc(Nc2ccc(N3CCC(N4CCCC4)CC3)c(F)c2)nn1-c1nnc(-c2ccccc2)c2c1C1CCC2C1 (stereo not shown) [Compound 40, 1-(5,8-methano-1-phenyl-5,6,7,8-tetrahydrophthalazine-4-yl)-N^3-(3-fluoro-4-(4-(pyrrolidin-1-yl)piperidin-1-yl)phenyl)-1H-1,2,4-triazole-3,5-diamine]",< 1000 nM
3,"1-((6R,8R)-6,8-dimethylmethano-5,6,7,8-tetrahydroquinoline-2-yl)-N^3-(3-fluoro-4-(4-(pyrrolidin-1-yl)piperidin-1-yl)phenyl)-1H-1,2,4-triazole-3,5-diamine [Compound 34]",< 1000 nM
4,"CN1CCCC(Oc2ccc(Nc3nc(N)n(-c4ncc5c(n4)C4CCC5C4)n3)cc2)C1 (stereo not shown) [Compound 3, (5,8-methano-5,6,7,8-tetrahydroquinazolin-2-yl)-N^3-(4-(1-methyl(piperidin-3-yl)oxy)phenyl)-1H-1,2,4-triazole-3,5-diamine]",< 1000 nM
5,"Nc1nc(Nc2ccc3c(c2)CCC(=O)CC3)nn1-c1cc(-c2ccccc2)c2c(n1)C1CCN2CC1 [Compound 69, 1-(1,4-ethano-8-phenyl-1,2,3,4-tetrahydro-1,5-naphthyridin-6-yl)-N^3-(7-oxo-6,7,8,9-tetrahydro-5H-benzo[7]annulene-3-yl)-1H-1,2,4-triazole-3,5-diamine]",1000 to 10000 nM
6,"Nc1nc(Nc2ccc(N3CCC(N4CCCC4)CC3)c(F)c2)nn1-c1cc(-c2ccncc2)c2c(n1)C1CCN2CC1 [Compound 32, 1-(1,4-ethano-8-pyridin-4-yl-1,2,3,4-tetrahydro-1,5-naphthyridin-6-yl)-N^3-(3-fluoro-4-(4-(pyrrolidin-1-yl)piperidin-1-yl)phenyl)-1H-1,2,4-triazole-3,5-diamine]",< 1000 nM
7,"CCN(CC)C1CCN(c2ccc(Nc3nc(N)n(-c4ncnc5c4C4CCC5C4)n3)cc2F)CC1 (stereo not shown) [Compound 17, 1-(5,8-methano-5,6,7,8-tetrahydroquinazolin-4-yl)-N^3-(3-fluoro-4-(4-diethylaminopiperidin-1-yl)phenyl)-1H-1,2,4-triazole-3,5-diamine]",< 1000 nM
8,"Nc1nc(Nc2ccc(N3CCC(N4CCC[C@H]4C(=O)O)CC3)c(F)c2)nn1-c1cc(-c2ccccc2)c2c(n1)C1CCN2CC1 [Compound 61, 1-(1,4-ethano-8-phenyl-1,2,3,4-tetrahydro-1,5-naphthyridin-6-yl)-N^3-(3-fluoro-4-(4-((2S)-2-carboxypyrrolidin-1-yl)piperidin-1-yl)phenyl)-1H-1,2,4-triazole-3,5-diamine]",< 1000 nM
9,"CN1CCC(c2ccc(Nc3nc(N)n(-c4cc(-c5ccccc5)c5c(n4)C4CCN5CC4)n3)cc2)CC1 [Compound 67, 1-(1,4-ethano-8-phenyl-1,2,3,4-tetrahydro-1,5-naphthyridin-6-yl)-N^3-(4-(1-methylpiperidin-4-yl)phenyl)-1H-1,2,4-triazole-3,5-diamine]",< 1000 nM
10,"Cc1cc(Nc2nc(N)n(-c3cc(-c4cccs4)c4c(n3)C3CCC4C3)n2)cnc1N1CCN(CC2CC2)CC1 (stereo not shown) [Compound 52, 1-(5,8-methano-4-thiophen-2-yl-5,6,7,8-tetrahydroquinoline-2-yl)-N^3-(3-methyl-2-(4-cyclopropylmethylpiperazin-1-yl)pyridine-5-yl)-1H-1,2,4-triazole-3,5-diamine]",< 1000 nM
11,"Cc1csc2c(-n3nc(Nc4ccc5c(c4)CC4CCC(C5)C4N4CCCC4)nc3N)nc(Cl)nc12 (stereo not shown) [Compound 15, 1-(2-chloro-7-methylthieno[3,2-d]pyrimidin-4-yl)-N^3-(7-pyrrolidin-1-yl-6,8-ethano-6,7,8,9-tetrahydro-5H-benzo[7]annulene-3-yl)-1H-1,2,4-triazole-3,5-diamine]",< 1000 nM
12,"Cc1cc(Nc2nc(N)n(-c3cc(-c4ccccc4)c4c(n3)C3CCC4C3)n2)cnc1N1CCN(CC2CC2)CC1 (stereo not shown) [Compound 51, 1-(5,8-methano-4-phenyl-5,6,7,8-tetrahydroquinoline-2-yl)-N^3-(3-methyl-2-(4-cyclopropylmethylpiperazin-1-yl)pyridine-5-yl)-1H-1,2,4-triazole-3,5-diamine]",1000 to 10000 nM
13,"Nc1nc(Nc2ccc(N3CCN(C4CCCCC4)CC3)cc2)nn1-c1ncc2c(n1)C1CCC2C1 (stereo not shown) [Compound 6, 1-(5,8-methano-5,6,7,8-tetrahydroquinazolin-2-yl)-N^3-(4-(4-cyclohexanylpiperazin-1-yl)phenyl)-1H-1,2,4-triazole-3,5-diamine]",< 1000 nM
14,"Nc1nc(Nc2ccc(N3CCC(N4CCCC4)CC3)c(F)c2)nn1-c1ncc2c(n1)C1CCC2C1 (stereo not shown) [Compound 11, 1-(5,8-methano-5,6,7,8-tetrahydroquinazolin-2-yl)-N^3-(3-fluoro-4-(4-(pyrrolidin-1-yl)piperidin-1-yl)phenyl)-1H-1,2,4-triazole-3,5-diamine]",< 1000 nM
15,"Nc1nc(Nc2ccc(N3CCC(N4CCCC4)CC3)c(F)c2)nn1-c1cc(-c2ccc(C(F)(F)F)cc2)c2c(n1)C1CCN2CC1 [Compound 57, 1-(1,4-ethano-8-(4-trifluoromethylphenyl)-1,2,3,4-tetrahydro-1,5-naphthyridin-6-yl)-N^3-(3-fluoro-4-(4-(pyrrolidin-1-yl)piperidin-1-yl)phenyl)-1H-1,2,4-triazole-3,5-diamine]",< 1000 nM
16,"CCOC(=O)C1CCN(C2CCN(c3ccc(Nc4nc(N)n(-c5cc(-c6ccccc6)c6c(n5)C5CCN6CC5)n4)cc3F)CC2)CC1 [Compound 58, (1,4-ethano-8-phenyl-1,2,3,4-tetrahydro-1,5-naphthyridin-6-yl)-N^3-(3-fluoro-4-(4-(4-ethyloxycarbonylpiperidin-1-yl)piperidin-1-yl)phenyl)-1H-1,2,4-triazole-3,5-diamine]",< 1000 nM
